Test results taken from patent US20240279641A1, “Structural Neuroplasticity Enhancer Screen” (Northwestern University, priority 2021, published 2024).

Columns and labels:
Format in all cases: cell-based, mouse
[1] = system: primary hippocampal and cortical neurons; experiment: SARE-ArcMin-luciferase-PSD95-mVenus luciferase assay in primary neuronal cultures, 96-well; conditions: hippocampal vs cortical primary cultures, 96-well plate
Method: (§1) Animals were handled according to protocols approved by the Northwestern University Animal Care and Use Committee. Cortical neurons were harvested from mouse embryos euthanized at embryonic day 18 and plated in poly-D-lysine coated plates. Embryonic brains were dissected in ice-cold dissection media (Hank's balance salt solution HBSS, 2% penicillin-streptomycin, 20 mM HEPES). Meninges were removed from each brain and cortices were dissected out. The cortices were chopped into small pieces using a microscissors and pooled in 5 mL dissection media containing 0.25% trypsin and 0.1% DNasel and trypsinised at 37° ° C. for 20-25 min. Cortices were washed twice with warm dissection media, and once with warm plating medium (MEM, supplemented with 10% heat-inactivated horse serum, 0.6% glucose, 1 mM Na pyruvate, 1% Glutamax, 1% penicillin-streptomycin) for 5 min each. Tissues were titurated in 3 mL fresh plating medium with unpolished and, subsequently, polished glass Pasteur pipettes. 1 k, 80 k, 150 k, 2500 k cells were seeded in 384-well, 12-well, 6-well plates, 10-cm dishes, respectively. […]
Luciferase substrate systems were prepared according to the Manufacturer's instructions. […] Plates were read by Biotek Syngery Neo2 plate reader. […]

primary cortical neurons = experiment: Western blot of biotinylation by TurboID constructs in cortical neurons; conditions: 55 mM KCl
Method: as §1, with “pipettes.” for “pipettes. 1 k, 80 k, 150 k, 2500 k cells were seeded in 384-well, 12-well, 6-well plates, 10-cm dishes, respectively.”
Cell pellets were sonicated in NP40 lysis buffer (1% NP40, 150 mM NaCl, 50 mM Tris, pH 8, 1× Halt). […] Total protein was detected using REVERT 700 according to the manufacturer instructions. […] All quantification was performed using LI-COR Image Studio version 5.2. For densitometry quantification, band signals were normalized to total protein stain in each blot using the equation below.

cFos = experiment: Western blot analysis of forskolin stimulation in cell culture: cFos; conditions: 1 μM forskolin vs 0.1% DMSO, normalized band signal, n=3, adj. p=0.0462
Method: (§2) For initial 384-well plate set up and western blot validation, forskolin (from 25 mM DMSO stock) was used as a positive control and DMSO was used as a vehicle control. For example, at 25 and 2.5 μM forskolin (0.1%, 0.01% DMSO), the corresponding vehicle control was 0.1% and 0.01% DMSO, respectively. Media was changed to NB-27 containing pharmacological agents (concentration specified in figure legends) and processed as described in each section 16 hrs after treatment.
(§3) Cell pellets were sonicated in NP40 lysis buffer (1% NP40, 150 mM NaCl, 50 mM Tris, pH 8, 1× Halt). Proteins were separated in 12% Tris-glycine gels and transferred to nitrocellulose membrane (Cat. No. 926-31090, LI-COR, NE, USA). Blots were briefly rinsed with TBS. Total protein was detected using REVERT 700 according to the manufacturer instructions. For detecting individual proteins, unless specified, blots were blocked with 5% milk-containing TBST (0.1% Tween20) for 1 hr at RT. Primary antibodies were added in the same blocking buffer for overnight incubation (1:1,000 rabbit RFP, Rockland, Cat. No., 600-401-379-RTU, and 1:1,000 mouse Psd95 Biolegend Cat. Nol, 810401)). […] All quantification was performed using LI-COR Image Studio version 5.2. For densitometry quantification, band signals were normalized to total protein stain in each blot using the equation below. […]

NanoLuc = experiment: Western blot analysis of forskolin stimulation in cell culture: NanoLuc (RFP); conditions: 1 μM forskolin vs 0.1% DMSO, normalized band signal, n=3, adj. p=0.324
Method: as §2, §3

Psd95 = experiment: Western blot analysis of forskolin stimulation in cell culture: Psd95; conditions: 1 μM forskolin vs 0.1% DMSO, normalized band signal, n=3, adj. p=1
Method: as §2, §3

Q: `COc1ccc(-c2ccc(=N)n(CCCC(=O)O)n2)cc1` [Gabazine] was tested. Which “dose-response of luciferase activity, construct (1)” value [1] did it give?
A: dose-response is cell-type specific

Q: With `[Cl-].[K+]` [KCl] as the molecule, how does the “biotin-labelling after induction of neuronal activity” value (primary cortical neurons) read?
A: enhanced biotin-labelling

Q: How did the “dose-response of luciferase activity, construct (1)” value [1] turn out when `CNC1(c2ccccc2Cl)CCCCC1=O` (stereo not drawn) [Ketamine] was run?
A: dose-response is cell-type specific

Q: Which results are given for `C=C[C@@]1(C)CC(=O)[C@]2(O)[C@@]3(C)[C@@H](O)CCC(C)(C)[C@@H]3[C@H](O)[C@H](OC(C)=O)[C@@]2(C)O1` [forskolin]?
A: cFos expression, FSK−DMSO (cFos): 3.232±0.769; NanoLuc expression, FSK−DMSO (NanoLuc): 0.583±0.267; Psd95 expression, FSK−DMSO (Psd95): −0.048±0.1131
